Article PMC7730235, “Discovery of a Novel Class of Covalent Dual Inhibitors Targeting the Protein Kinases BMX and BTK” (International Journal of Molecular Sciences, 2020)
pIC50: −log10 of the molar value.

Tests used:
Assay in all cases: Radiometric kinase assay (Reaction Biology HotSpot)
Type in all cases: biochemical
TEC = target: T1, TEC (Homo sapiens, UniProt P42680); conditions: [ATP] = 10 μM; for remaining activity at 0.2 µM: 200 nM compound, duplicate mean, read-out: Residual Activity @ 200 nM, TEC
T1 construct: purchased Reaction Biology Corporation
T1 sequence (P42680 1-631): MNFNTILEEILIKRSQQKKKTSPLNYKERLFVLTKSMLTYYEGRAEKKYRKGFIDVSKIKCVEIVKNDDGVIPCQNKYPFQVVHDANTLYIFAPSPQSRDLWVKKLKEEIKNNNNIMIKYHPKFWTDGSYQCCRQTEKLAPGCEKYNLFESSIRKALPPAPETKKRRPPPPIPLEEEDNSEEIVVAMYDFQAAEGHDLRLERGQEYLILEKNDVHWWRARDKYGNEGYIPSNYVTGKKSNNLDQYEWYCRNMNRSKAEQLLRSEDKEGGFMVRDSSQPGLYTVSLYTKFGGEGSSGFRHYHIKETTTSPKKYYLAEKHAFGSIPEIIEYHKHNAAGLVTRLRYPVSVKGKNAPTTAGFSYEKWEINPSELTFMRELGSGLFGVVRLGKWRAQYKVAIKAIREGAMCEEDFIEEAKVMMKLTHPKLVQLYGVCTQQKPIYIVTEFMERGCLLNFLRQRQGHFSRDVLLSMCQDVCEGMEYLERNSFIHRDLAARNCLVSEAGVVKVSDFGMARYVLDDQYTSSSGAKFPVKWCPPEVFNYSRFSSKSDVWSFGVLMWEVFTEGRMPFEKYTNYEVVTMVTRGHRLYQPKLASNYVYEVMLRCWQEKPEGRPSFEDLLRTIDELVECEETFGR
Description: (§1) If not mentioned differently, in vitro profiling of compounds was performed at Reaction Biology Corporation using the HotSpot™ assay platform.

JAK3 = target: T2, JAK3 (Homo sapiens, UniProt P52333); conditions: [ATP] = 10 μM; for remaining activity at 0.2 µM: 200 nM compound, duplicate mean, read-out: Residual Activity @ 200 nM, JAK3; for pIC50: radiometric HotSpot, five-dose singlicate
T2 construct: purchased Reaction Biology Corporation
T2 sequence (P52333 1-1124): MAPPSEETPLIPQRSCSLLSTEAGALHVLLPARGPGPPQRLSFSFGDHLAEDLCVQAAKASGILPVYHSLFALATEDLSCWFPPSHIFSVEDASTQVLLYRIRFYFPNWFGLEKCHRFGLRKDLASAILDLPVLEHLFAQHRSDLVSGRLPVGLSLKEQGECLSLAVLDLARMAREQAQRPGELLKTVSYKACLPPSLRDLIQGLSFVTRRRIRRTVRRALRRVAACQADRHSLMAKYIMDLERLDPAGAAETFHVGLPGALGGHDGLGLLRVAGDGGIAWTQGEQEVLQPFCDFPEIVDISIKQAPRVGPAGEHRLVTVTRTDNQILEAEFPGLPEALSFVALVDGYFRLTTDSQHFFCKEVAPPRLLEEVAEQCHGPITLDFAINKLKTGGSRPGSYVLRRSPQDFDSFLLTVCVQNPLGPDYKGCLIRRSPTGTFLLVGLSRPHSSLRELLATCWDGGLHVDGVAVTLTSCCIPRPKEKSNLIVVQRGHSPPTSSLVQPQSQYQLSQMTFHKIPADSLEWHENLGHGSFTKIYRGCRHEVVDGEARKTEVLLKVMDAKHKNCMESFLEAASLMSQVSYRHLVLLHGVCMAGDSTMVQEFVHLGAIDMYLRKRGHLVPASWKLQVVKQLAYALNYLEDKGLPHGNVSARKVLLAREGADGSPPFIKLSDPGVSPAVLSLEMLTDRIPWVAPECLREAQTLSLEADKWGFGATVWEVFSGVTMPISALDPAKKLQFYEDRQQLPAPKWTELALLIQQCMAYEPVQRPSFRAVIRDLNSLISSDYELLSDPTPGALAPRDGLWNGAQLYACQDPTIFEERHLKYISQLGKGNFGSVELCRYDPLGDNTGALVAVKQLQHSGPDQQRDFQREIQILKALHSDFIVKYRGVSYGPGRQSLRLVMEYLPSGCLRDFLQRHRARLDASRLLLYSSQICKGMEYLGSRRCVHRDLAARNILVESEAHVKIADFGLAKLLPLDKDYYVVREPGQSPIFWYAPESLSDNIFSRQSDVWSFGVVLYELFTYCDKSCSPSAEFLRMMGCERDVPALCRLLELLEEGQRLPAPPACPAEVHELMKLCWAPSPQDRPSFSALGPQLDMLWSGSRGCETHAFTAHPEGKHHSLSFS
Description: as §1

ITK = target: T3, ITK (Homo sapiens, UniProt Q08881); conditions: 200 nM compound, duplicate mean, [ATP] = 10 μM; read-out: Residual Activity @ 200 nM, ITK
T3 construct: purchased Reaction Biology Corporation
T3 sequence (Q08881 1-620): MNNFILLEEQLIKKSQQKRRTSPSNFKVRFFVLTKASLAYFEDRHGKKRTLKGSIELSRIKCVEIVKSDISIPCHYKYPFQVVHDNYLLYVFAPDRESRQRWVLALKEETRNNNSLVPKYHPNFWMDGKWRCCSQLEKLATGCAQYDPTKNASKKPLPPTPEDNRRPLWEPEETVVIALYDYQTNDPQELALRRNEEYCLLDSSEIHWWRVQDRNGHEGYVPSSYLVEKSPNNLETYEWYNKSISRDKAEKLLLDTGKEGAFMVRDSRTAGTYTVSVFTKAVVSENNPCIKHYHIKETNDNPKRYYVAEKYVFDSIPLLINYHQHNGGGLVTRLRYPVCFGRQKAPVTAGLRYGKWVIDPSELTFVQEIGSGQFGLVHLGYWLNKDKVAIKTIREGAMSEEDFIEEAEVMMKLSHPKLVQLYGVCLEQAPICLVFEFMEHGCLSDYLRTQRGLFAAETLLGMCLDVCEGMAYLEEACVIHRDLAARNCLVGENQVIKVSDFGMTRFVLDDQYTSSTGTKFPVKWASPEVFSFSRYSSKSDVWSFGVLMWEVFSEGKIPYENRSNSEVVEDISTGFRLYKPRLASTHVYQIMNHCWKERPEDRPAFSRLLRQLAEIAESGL
Description: as §1

HER2 = target: T4, HER2 (Homo sapiens, UniProt P04626); conditions: [ATP] = 10 μM; for remaining activity at 0.2 µM: 200 nM compound, duplicate mean, read-out: Residual Activity @ 200 nM, HER2
T4 construct: purchased Reaction Biology Corporation
T4 sequence (P04626 23-1255): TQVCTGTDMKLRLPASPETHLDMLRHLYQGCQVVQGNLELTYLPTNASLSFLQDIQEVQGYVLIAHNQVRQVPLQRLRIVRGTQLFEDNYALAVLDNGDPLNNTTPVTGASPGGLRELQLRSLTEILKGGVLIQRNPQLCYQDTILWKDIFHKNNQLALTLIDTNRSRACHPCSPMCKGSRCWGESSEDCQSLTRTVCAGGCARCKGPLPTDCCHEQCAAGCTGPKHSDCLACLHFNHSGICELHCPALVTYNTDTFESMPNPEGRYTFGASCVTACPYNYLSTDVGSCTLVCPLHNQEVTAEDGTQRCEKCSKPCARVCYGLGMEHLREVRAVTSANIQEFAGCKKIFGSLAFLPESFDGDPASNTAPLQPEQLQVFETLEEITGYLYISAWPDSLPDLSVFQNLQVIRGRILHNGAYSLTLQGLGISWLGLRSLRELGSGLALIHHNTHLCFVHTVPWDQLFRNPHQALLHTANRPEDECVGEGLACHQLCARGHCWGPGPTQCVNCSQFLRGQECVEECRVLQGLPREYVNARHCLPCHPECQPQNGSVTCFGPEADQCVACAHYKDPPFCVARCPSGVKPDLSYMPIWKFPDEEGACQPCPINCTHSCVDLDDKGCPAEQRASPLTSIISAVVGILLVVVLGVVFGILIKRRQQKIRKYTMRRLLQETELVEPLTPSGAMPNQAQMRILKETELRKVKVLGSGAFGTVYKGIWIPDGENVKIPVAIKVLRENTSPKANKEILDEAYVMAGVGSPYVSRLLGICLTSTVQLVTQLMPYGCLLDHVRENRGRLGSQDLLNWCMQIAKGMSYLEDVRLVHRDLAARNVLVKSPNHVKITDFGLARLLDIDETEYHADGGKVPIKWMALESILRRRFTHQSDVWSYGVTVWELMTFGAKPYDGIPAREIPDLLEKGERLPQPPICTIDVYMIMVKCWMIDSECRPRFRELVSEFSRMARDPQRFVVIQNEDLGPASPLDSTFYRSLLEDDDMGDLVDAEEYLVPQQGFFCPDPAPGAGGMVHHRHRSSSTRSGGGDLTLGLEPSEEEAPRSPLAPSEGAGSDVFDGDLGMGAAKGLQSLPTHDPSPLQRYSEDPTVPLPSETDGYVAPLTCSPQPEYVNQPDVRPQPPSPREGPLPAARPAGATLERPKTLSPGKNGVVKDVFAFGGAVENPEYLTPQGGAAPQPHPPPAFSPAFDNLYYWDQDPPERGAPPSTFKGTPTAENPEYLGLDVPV
Description: as §1

[1] = radiometric HotSpot, five-dose singlicate

Row | Compound | remaining activity at 0.2 µM (TEC) [%] | remaining activity at 0.2 µM (JAK3) [%] | pIC50 (JAK3) | remaining activity at 0.2 µM (ITK) [%] | remaining activity at 0.2 µM (HER2) [%] | pIC50 (TEC; [1]) | pIC50 (HER2; [1])
1 | C=CC(=O)Nc1cccc(-c2c[nH]c3ncccc23)c1 [Compound 9a, N-(3-(1H-pyrrolo[2,3-b]pyridin-3-yl)phenyl)acrylamide] | 37.1 | 0.8 | 9.70 | 88.1 | 95 | – | –
2 | C=CC(=O)Nc1cccc(-c2c[nH]c3ncc(C(N)=O)cc23)c1 [Compound 10a, 3-(3-acrylamidophenyl)-1H-pyrrolo[2,3-b]pyridine-5-carboxamide] | 42.1 | 0.5 | > 10.00 | 90.8 | 97 | – | –
3 | CCC(=O)Nc1cccc(-c2c[nH]c3ncc(NC(=O)C4CCCC4)cc23)c1 [Compound 12b, N-(3-(3-propionamidophenyl)-1H-pyrrolo[2,3-b]pyridin-5-yl)cyclopentanecarboxamide] | 99.2 | – | – | – | > 100 | – | –
4 | C=CC(=O)Nc1cccc(-c2c[nH]c3ncc(NC(=O)c4cccs4)cc23)c1 [Compound 12c, N-(3-(3-acrylamidophenyl)-1H-pyrrolo[2,3-b]pyridin-5-yl)thiophene-2-carboxamide] | 17.2 | > 100 | < 5.00 | 94 | 41.1 | 7.89 | 6.93
